Assay results reported in patent US10842794B2, “Use of Sigma-1 receptor agonist compounds” (MTA TÁMOGATOTT KUTATÓCSOPORTOK IRODÁJA, priority 2014, dated 2020).

Columns and labels:
NRK49F cells = test: Cell viability MTT assay in myofibroblasts; format: cell-based, rat; details: 24-hours treatment, commonly used doses 1-10 μM
[1] = tested on: rat model of bleomycin-induced lung fibrosis; test: Rat model of bleomycin induced pulmonary fibrosis: Masson trichrome staining of lung; format: in vivo; details: fluvoxamine 20 mg/bwkg/day per os
Protocol: Masson trichrome staining of tissue sections was performed Bars represent Mean±SEM, n=6/group). Specifically:
For the induction of pulmonary fibrosis male Wistar rats were anesthetized. Bleomycin (5 mg/bwkg in a 300 μl solution of isotonic saline) or 300 μl isotonic saline was administered into the trachea using a 30G needle.
Animals were randomly divided into 4 groups of 6 rats each as follows (i)—control group was sham operated, received isotonic saline per os daily for 3 weeks, (ii) vehicle treated group: received isotonic saline per os daily for 3 weeks after the induction of lung fibrosis, (iii) fluvoxamine treated group: received fluvoxamine (20 mg/bwkg/day per os for 3 weeks after the induction of lung fibrosis), (iv) fluvoxamine+NE100 treated group: received fluvoxamine (20 mg/bwkg/day; per os) and 1 mg/bwkg/day NE100 (i.p. for 3 weeks after the induction of lung fibrosis. […]
The stained sections were viewed and photographed with Pannoramic 250 Flash and Pannoramic Viewer 1.15.2 (3D HISTECH Ltd. Budapest, Hungary) Adobe Photoshop 13.0 and Scion Image for Windows software were used for the analysis. […] Finally these ratios were statistically analyzed in all of the treatment groups.

[2] = tested on: mice with unilateral ureter obstruction (UUO); test: Mice model of UUO: αSMA protein in kidney, western blot; format: in vivo; details: one week fluvoxamine treatment 20 mg/bwkg/day
[3] = tested on: NRK49F rat kidney interstitial fibroblast cell lines; test: PDGFB-induced myofibroblast proliferation (MTT); format: cell-based; details: 10 ng/mL PDGFB, 24 hours, different concentrations of agonist
[4] = tested on: Streptozotocin induced type 1 diabetic rats; test: Diabetic rat kidney: fibronectin staining; format: in vivo; details: fluvoxamine 20 mg/bwkg/day for 2 weeks from the 5th week of diabetes

Which results are given for COCCCC/C(=N\OCCN)c1ccc(C(F)(F)F)cc1 [fluvoxamine, 2-{[(E)-{5-Methoxy-1-[4-(trifluoromethyl)phenyl]pentylidene}amino]oxy}ethanamine]?
cytotoxicity / cell viability in myofibroblasts (NRK49F cells): not cytotoxic; fibrotic lesions of the lung after bleomycin (Masson trichrome) [1]: prevented almost totally the fibrotic effect of bleomycin; UUO-induced αSMA production in kidney [2]: successfully decreased UUO-induced αSMA production; PDGF-induced myofibroblast proliferation [3]: significantly decreased PDGF-induced myofibroblast proliferation; fibrotic lesion (fibronectin staining) versus diabetic rats [4]: smaller
